The record followed here is ChEMBL document CHEMBL1137921, “Substrate analogs for the investigation of deoxyxylulose 5-phosphate reductoisomerase inhibition: synthesis and evaluation” (Bioorg Med Chem Lett, 2004).

The target of data set [1] is T1, 1-deoxy-D-xylulose 5-phosphate reductoisomerase (Synechocystis sp. (strain PCC 6803 / Kazusa), UniProt Q55663).
T1 sequence (Q55663 whole entry): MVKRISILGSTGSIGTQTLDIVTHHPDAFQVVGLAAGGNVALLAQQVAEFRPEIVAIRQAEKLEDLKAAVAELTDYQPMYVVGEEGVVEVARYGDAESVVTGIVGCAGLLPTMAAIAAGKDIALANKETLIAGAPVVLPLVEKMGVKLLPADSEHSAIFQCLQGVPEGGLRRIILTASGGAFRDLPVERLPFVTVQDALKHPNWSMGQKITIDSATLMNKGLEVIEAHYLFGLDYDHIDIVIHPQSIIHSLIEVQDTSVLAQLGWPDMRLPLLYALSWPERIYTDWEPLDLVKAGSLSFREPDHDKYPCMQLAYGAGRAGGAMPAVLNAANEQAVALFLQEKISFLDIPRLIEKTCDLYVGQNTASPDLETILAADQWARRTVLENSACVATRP
Kind of data set: Binding affinity against Synechocystis strain PCC6803 DXP reductoisomerase. On the set-up: species or system Synechocystis sp. PCC 6803.

Data set [2] deals with T2, 1-deoxy-D-xylulose 5-phosphate reductoisomerase (Escherichia coli K-12, UniProt P45568).
T2 sequence (P45568 whole entry): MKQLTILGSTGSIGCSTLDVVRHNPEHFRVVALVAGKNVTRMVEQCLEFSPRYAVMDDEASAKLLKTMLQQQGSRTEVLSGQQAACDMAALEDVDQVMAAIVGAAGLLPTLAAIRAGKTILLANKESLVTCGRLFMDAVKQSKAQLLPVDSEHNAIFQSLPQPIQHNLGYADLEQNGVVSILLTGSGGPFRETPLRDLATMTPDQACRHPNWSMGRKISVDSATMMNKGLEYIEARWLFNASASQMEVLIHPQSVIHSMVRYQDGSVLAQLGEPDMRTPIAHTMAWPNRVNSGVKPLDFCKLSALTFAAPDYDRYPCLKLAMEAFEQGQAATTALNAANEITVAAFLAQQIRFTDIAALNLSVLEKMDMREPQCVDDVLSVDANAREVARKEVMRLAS
Kind of data set: Inhibitory activity against Escherichia coli deoxyxylulose 5-phosphate reductoisomerase.

Substrate in data set [3]: CC(=O)[C@@H](O)[C@H](O)CCP(=O)(O)O
Briefly: Michaelis-Menten constant for Synechocystis strain PCC6803 DXP reductoisomerase. The following applies: Synechocystis sp. PCC 6803.

With `O=CN(O)CCCP(=O)(O)O` [FOSMIDOMYCIN], affinity in data set [1] was put at a Ki of 0.021 µM.

Consider `CC(=O)[C@@H](O)[C@@H](O)COP(=O)(O)O`, for which affinity in data set [1] was put at a Ki of 180 µM.

Turning to `CC(=O)C[C@H](O)COP(=O)(O)O`, the inhibition constant (Ki) in data set [1] turned out to be 150 µM; in data set [2], 800 µM.

In data set [1], `NC(=O)[C@@H](O)[C@H](O)COP(=O)(O)O` gave a Ki of 90 µM.

The molecule `CCC(=O)[C@@H](O)[C@H](O)COP(=O)(O)O` displayed a Ki in data set [1] of 630 µM.

For the molecule `CC(=O)[C@@H](O)CCOP(=O)(O)O`, the figures for the Ki in data set [1] and in data set [2] were 30 µM and 120 µM, respectively.

B1: 1-deoxy-D-xylulose 5-phosphate reductoisomerase (Synechocystis sp. (strain PCC 6803 / Kazusa)), Q55663 (protein)
chain: MVKRISILGSTGSIGTQTLDIVTHHPDAFQVVGLAAGGNVALLAQQVAEFRPEIVAIRQAEKLEDLKAAVAELTDYQPMYVVGEEGVVEVARYGDAESVVTGIVGCAGLLPTMAAIAAGKDIALANKETLIAGAPVVLPLVEKMGVKLLPADSEHSAIFQCLQGVPEGGLRRIILTASGGAFRDLPVERLPFVTVQDALKHPNWSMGQKITIDSATLMNKGLEVIEAHYLFGLDYDHIDIVIHPQSIIHSLIEVQDTSVLAQLGWPDMRLPLLYALSWPERIYTDWEPLDLVKAGSLSFREPDHDKYPCMQLAYGAGRAGGAMPAVLNAANEQAVALFLQEKISFLDIPRLIEKTCDLYVGQNTASPDLETILAADQWARRTVLENSACVATRP
In the case of B1, the Km in data set [3] worked out at 690 µM.

As usually defined, the Ki is the dissociation constant of the complex between target and ligand, obtained from inhibition or displacement. High values mean lower affinity, low ones higher affinity. A word on the Km: it is the concentration of substrate that gives half-maximal velocity.
